Measured values reported in patent US9556165B2 (priority 2012, dated 2017).
Values after ≈ are worked out from the molar mass of the structure shown. Like-named read-outs stand apart in the source and are kept apart here.

Tests used:
Type in all cases: cell-based
E. coli ATCC25922 = assay: MIC determination, broth microdilution (CLSI); conditions: for MIC: Escherichia coli, ATCC25922, strain 1
E. cloacae 34654 = assay: MIC determination, broth microdilution (CLSI); conditions: Enterobacter cloacae, 34654, strain 3
C. freundii K21/3034 = assay: MIC determination, broth microdilution (CLSI); conditions: Citrobacter freundii, K21/3034, strain 4
M. morganii 126/3048 = assay: MIC determination, broth microdilution (CLSI); conditions: Morganella morganii, 126/3048, strain 5
P. aeruginosa PAO1 = assay: MIC determination, broth microdilution (CLSI); conditions: Pseudomonas aeruginosa, PAO1, strain 6
[1] = system: P. aeruginosa 2297 (AmpC wt); assay: MIC determination, broth microdilution (CLSI); conditions: Pseudomonas aeruginosa, strain 7
[2] = system: P. aeruginosa 2297-con (AmpC derepressed); assay: MIC determination, broth microdilution (CLSI); conditions: Pseudomonas aeruginosa, read-out: strain 8 MIC, strain 8
A. baumannii ATCC15308 = assay: MIC determination, broth microdilution (CLSI); conditions: Acinetobacter baumannii, ATCC15308, strain 9
S. aureus 133 = assay: MIC determination, broth microdilution (CLSI)
E. coli J62 = assay: MIC determination, broth microdilution (CLSI); conditions: Escherichia coli, J62, strain 17; broth microdilution; read-out: MIC strain 17 (E. coli J62)
Bacteria = assay: MIC determination in combination with β-lactamase inhibitors (constant 4 μg/mL)
K. pneumoniae 60 = assay: MIC determination, broth microdilution (CLSI); conditions: Klebsiella pneumoniae, 60, strain 2
E. coli J62-TEM-3 = assay: MIC determination, broth microdilution (CLSI); conditions: Escherichia coli, J62TEM3, read-out: MIC strain 18 (E. coli J62-TEM-3), strain 18; broth microdilution
H. influenzae ATCC 49247 = assay: MIC determination, broth microdilution (CLSI); conditions: Haemophilus influenzae, ATCC49247, strain 12; broth microdilution; read-out: MIC strain 12 (H. influenzae ATCC 49247)
S. pneumoniae 113 = assay: MIC determination, broth microdilution (CLSI); conditions: Streptococcus pneumoniae, 113, strain 13; broth microdilution; read-out: MIC strain 13 (S. pneumoniae 113)
B. fragilis 6688 = assay: MIC determination, broth microdilution (CLSI); conditions: Bacteroides fragilis, 6688, strain 15; broth microdilution; read-out: MIC strain 15 (B. fragilis 6688)
[3] = Staphylococcus aureus, 133, strain 14, broth microdilution, read-out: MIC strain 14 (S. aureus 133)
[4] = Staphylococcus aureus, 133, strain 11, read-out: strain 11 MIC

SMILES	MIC (E. coli ATCC25922)	MIC (E. cloacae 34654)	MIC (C. freundii K21/3034)	MIC (M. morganii 126/3048)	MIC (P. aeruginosa PAO1)	MIC [1]	MIC [2]	MIC (A. baumannii ATCC15308)	MIC (S. aureus 133; [3])	MIC (E. coli J62)	MIC strain 19 (E. coli J62-TEM-3 + 4 μg/mL clavulanic acid) (Bacteria)	MIC strain 20 (E. coli J62-TEM-3 + 4 μg/mL sulbactam) (Bacteria)	MIC strain 21 (E. coli J62-TEM-3 + 4 μg/mL tazobactam) (Bacteria)	MIC (K. pneumoniae 60)	MIC (E. coli J62-TEM-3)	MIC (S. aureus 133; [4])	MIC (H. influenzae ATCC 49247)	MIC (S. pneumoniae 113)	MIC (B. fragilis 6688)	strain 1 MIC (E. coli ATCC25922; strain 1)
C[C@H]1[C@H](NC(=O)/C(=N\OCCOc2cccc(C(=N)N)c2)c2csc(N)n2)C(=O)N1S(=O)(=O)O [Example 53, (2S,3S)-3-{[(2Z)-2-(2-Amino-1,3-thiazol-4-yl)-2-{[2-(3-carbamimidoylphenoxy)ethoxy]imino}acetyl]amino}-2-methyl-4-oxoazetidine-1-sulfonic acid]	0.5 µg/mL (≈ 0.977 µM)	0.5 µg/mL (≈ 0.977 µM)	0.5 µg/mL (≈ 0.977 µM)	2 µg/mL (≈ 3.91 µM)	16 µg/mL (≈ 31.3 µM)	16 µg/mL (≈ 31.3 µM)	32 µg/mL (≈ 62.6 µM)	4 µg/mL (≈ 7.82 µM)	32 µg/mL (≈ 62.6 µM)	1 µg/mL (≈ 1.95 µM)	1 µg/mL	1 µg/mL	1 µg/mL							
CC(C)NC(=N)c1ccc(OCCO/N=C(\C(=O)N[C@@H]2C(=O)N(S(=O)(=O)O)[C@H]2C)c2csc(N)n2)cc1 [Example 54, (2S,3S)-3-({(2Z)-2-(2-Amino-1,3-thiazol-4-yl)-2-[(2-{4-[N-(propan-2-yl)carbamimidoyl]phenoxy}ethoxy)imino]acetyl}amino)-2-methyl-4-oxoazetidine-1-sulfonic acid]	0.5 µg/mL (≈ 0.903 µM)	0.5 µg/mL (≈ 0.903 µM)	0.25 µg/mL (≈ 0.452 µM)	1 µg/mL (≈ 1.81 µM)	4 µg/mL (≈ 7.23 µM)	8 µg/mL (≈ 14.5 µM)		4 µg/mL (≈ 7.23 µM)	2 µg/mL (≈ 3.61 µM)	0.5 µg/mL (≈ 0.903 µM)	0.5 µg/mL	0.25 µg/mL	0.5 µg/mL	0.5 µg/mL (≈ 0.903 µM)	16 µg/mL (≈ 28.9 µM)					
C[C@H]1[C@H](NC(=O)/C(=N\OCCOCc2cc(C(=N)N)cs2)c2csc(N)n2)C(=O)N1S(=O)(=O)O [Example 56, (2S,3S)-3-{[(2Z)-2-(2-Amino-1,3-thiazol-4-yl)-2-({2-[(4-carbamimidoylthiophen-2-yl)methoxy]ethoxy}imino)acetyl]amino}-2-methyl-4-oxoazetidine-1-sulfonic acid]	2 µg/mL (≈ 3.76 µM)	4 µg/mL (≈ 7.52 µM)	0.5 µg/mL (≈ 0.941 µM)	0.5 µg/mL (≈ 0.941 µM)	32 µg/mL (≈ 60.2 µM)	32 µg/mL (≈ 60.2 µM)		4 µg/mL (≈ 7.52 µM)	8 µg/mL (≈ 15 µM)	2 µg/mL (≈ 3.76 µM)	1 µg/mL	4 µg/mL	4 µg/mL	0.5 µg/mL (≈ 0.941 µM)	32 µg/mL (≈ 60.2 µM)	1 µg/mL (≈ 1.88 µM)	2 µg/mL (≈ 3.76 µM)	4 µg/mL (≈ 7.52 µM)	32 µg/mL (≈ 60.2 µM)	
C[C@H]1[C@H](NC(=O)/C(=N\OCCOc2nnc(C(=N)N)s2)c2csc(N)n2)C(=O)N1S(=O)(=O)O [Example 65, (2S,3S)-3-{[(2Z)-2-(2-Amino-1,3-thiazol-4-yl)-2-({2-[(5-carbamimidoyl-1,3,4-thiadiazol-2-yl)oxy]ethoxy}imino)acetyl]amino}-2-methyl-4-oxoazetidine-1-sulfonic acid]	0.5 µg/mL (≈ 0.962 µM)	0.5 µg/mL (≈ 0.962 µM)	0.25 µg/mL (≈ 0.481 µM)	0.125 µg/mL (≈ 0.241 µM)	16 µg/mL (≈ 30.8 µM)	32 µg/mL (≈ 61.6 µM)		8 µg/mL (≈ 15.4 µM)	8 µg/mL (≈ 15.4 µM)	1 µg/mL (≈ 1.92 µM)	0.5 µg/mL	1 µg/mL	2 µg/mL	0.25 µg/mL (≈ 0.481 µM)	32 µg/mL (≈ 61.6 µM)	0.25 µg/mL (≈ 0.481 µM)	0.5 µg/mL (≈ 0.962 µM)	1 µg/mL (≈ 1.92 µM)	16 µg/mL (≈ 30.8 µM)	
C[C@H]1[C@H](NC(=O)/C(=N\OCCOc2ccc(C(=N)NCCOC=O)cc2)c2csc(N)n2)C(=O)N1S(=O)(=O)O [Example 70, (2S,3S)-3-{[(2Z)-2-(2-Amino-1,3-thiazol-4-yl)-2-{[2-(4-{N-[2-(formyloxy)ethyl]carbamimidoyl}phenoxy)ethoxy]imino}acetyl]amino}-2-methyl-4-oxoazetidine-1-sulfonic acid]	0.125 µg/mL (≈ 0.214 µM)	0.25 µg/mL (≈ 0.428 µM)	0.125 µg/mL (≈ 0.214 µM)	0.125 µg/mL (≈ 0.214 µM)	4 µg/mL (≈ 6.85 µM)	4 µg/mL (≈ 6.85 µM)		2 µg/mL (≈ 3.43 µM)	8 µg/mL (≈ 13.7 µM)	0.25 µg/mL (≈ 0.428 µM)	0.25 µg/mL	0.25 µg/mL	0.25 µg/mL	0.25 µg/mL (≈ 0.428 µM)	16 µg/mL (≈ 27.4 µM)	0.125 µg/mL (≈ 0.214 µM)	0.125 µg/mL (≈ 0.214 µM)	0.5 µg/mL (≈ 0.857 µM)	16 µg/mL (≈ 27.4 µM)	
C[C@H]1[C@H](NC(=O)/C(=N\OCCOc2cc(C(=N)N)n(C)n2)c2csc(N)n2)C(=O)N1S(=O)(=O)O [Example 72, (2S,3S)-3-{[(2Z)-2-(2-Amino-1,3-thiazol-4-yl)-2-({2-[(5-carbamimidoyl-1-methyl-1H-pyrazol-3-yl)oxy]ethoxy}imino)acetyl]amino}-2-methyl-4-oxoazetidine-1-sulfonic acid]	0.5 µg/mL (≈ 0.97 µM)	1 µg/mL (≈ 1.94 µM)	0.5 µg/mL (≈ 0.97 µM)	0.25 µg/mL (≈ 0.485 µM)	8 µg/mL (≈ 15.5 µM)	8 µg/mL (≈ 15.5 µM)		4 µg/mL (≈ 7.76 µM)	16 µg/mL (≈ 31 µM)	1 µg/mL (≈ 1.94 µM)	1 µg/mL	1 µg/mL	1 µg/mL	0.25 µg/mL (≈ 0.485 µM)	32 µg/mL (≈ 62.1 µM)	0.25 µg/mL (≈ 0.485 µM)	0.5 µg/mL (≈ 0.97 µM)	2 µg/mL (≈ 3.88 µM)	16 µg/mL (≈ 31 µM)	
C[C@H]1[C@H](NC(=O)/C(=N\OCCOc2ccc(C(=N)NCCN)cc2)c2csc(N)n2)C(=O)N1OCS(=O)(=O)O [Example 77, {[(2S,3S)-3-{[(2Z)-2-[(2-{4-[N-(2-Aminoethyl)carbamimidoyl]phenoxy}ethoxy)imino]-2-(2-amino-1,3-thiazol-4-yl)acetyl]amino}-2-methyl-4-oxoazetidin-1-yl]oxy}methanesulfonic acid]	0.5 µg/mL (≈ 0.855 µM)	2 µg/mL (≈ 3.42 µM)	0.5 µg/mL (≈ 0.855 µM)	2 µg/mL (≈ 3.42 µM)	8 µg/mL (≈ 13.7 µM)	16 µg/mL (≈ 27.4 µM)		8 µg/mL (≈ 13.7 µM)		0.5 µg/mL (≈ 0.855 µM)	1 µg/mL	1 µg/mL	1 µg/mL	2 µg/mL (≈ 3.42 µM)	16 µg/mL (≈ 27.4 µM)					
CC1(C)[C@H](NC(=O)/C(=N\O[C@H](COc2ccc(C(=N)NCc3ncc[nH]3)cc2)C(=O)O)c2csc(N)n2)C(=O)N1OS(=O)(=O)O [Example 105, (2R)-2-({[(1Z)-1-(2-Amino-1,3-thiazol-4-yl)-2-{[(3S)-2,2-dimethyl-4-oxo-1-(sulfooxy)-azetidin-3-yl]amino}-2-oxoethylidene]amino}oxy)-3-{4-[N-(1H-imidazol-2-ylmeth-yl)carbamimidoyl]phenoxy}propanoic acid]																				16 µg/mL
CC1(C)[C@H](NC(=O)/C(=N\O[C@H](COc2ccc(C(=N)NCCNc3ncccn3)cc2)C(=O)O)c2csc(N)n2)C(=O)N1OS(=O)(=O)O [Example 111, (2R)-2-({[(1Z)-1-(2-Amino-1,3-thiazol-4-yl)-2-{[(3S)-2,2-dimethyl-4-oxo-1-(sulfooxy)-azetidin-3-yl]amino}-2-oxoethylidene]amino}oxy)-3-(4-{N-[2-(pyrimidin-2-ylamino)ethyl]carbamimidoyl}phenoxy)propanoic acid]	8 µg/mL (≈ 11.3 µM)	16 µg/mL (≈ 22.6 µM)	4 µg/mL (≈ 5.66 µM)	8 µg/mL (≈ 11.3 µM)	32 µg/mL (≈ 45.3 µM)	32 µg/mL (≈ 45.3 µM)	32 µg/mL (≈ 45.3 µM)	32 µg/mL (≈ 45.3 µM)		16 µg/mL (≈ 22.6 µM)	8 µg/mL	8 µg/mL	8 µg/mL	8 µg/mL (≈ 11.3 µM)	32 µg/mL (≈ 45.3 µM)		0.25 µg/mL (≈ 0.354 µM)	2 µg/mL (≈ 2.83 µM)		
